Test results: US9173888B1, “Treatment and inhibition of protozoal diseases with nandrolone and its derivatives” (priority 2014, dated 2015)

system: Leishmania major promastigotes; test: Anti-leishmanial assay (promastigote culture, 72 h, microscopic counting); format: cell-based; conditions: 72 h at 21-22° C., assays repeated thrice, read-out: Leishmanicidal Activity (IC50 in μM)

Structure (SMILES)	IC50
C[C@]12[C@H](O)C[C@H]3[C@@H](CCC4=CC(=O)CC[C@@]43O)[C@@H]1CC[C@@H]2O [Compound 2, 10β,12β,17β-Trihydroxy-19-nor-4-androsten-3-one]	> 100 µM
C[C@]12CC[C@H]3[C@@H](CCC4=CC(=O)CC[C@@]43O)[C@@H]1C[C@@H](O)[C@@H]2O [Compound 3, 10β,16α,17β-Trihydroxy-19-nor-4-androsten-3-one]	77.4 µM
C[C@]12CC[C@H]3[C@@H](C[C@@H](O)C4=CC(=O)CC[C@@]43O)[C@@H]1CC[C@@H]2O [Compound 4, 6β,10β,17β-Trihydroxy-19-nor-4-androsten-3-one]	70.9 µM
C[C@]12CC[C@H]3[C@@H](CCC4=CC(=O)CC[C@@]43O)[C@@H]1CC[C@@H]2O [Compound 5, 10β,17β-Dihydroxy-19-nor-4-androsten-3-one]	54.9 µM
C[C@]12CC[C@H]3[C@@H](C[C@@H](O)C4=CC(=O)CC[C@@H]43)[C@@H]1CC[C@@H]2O [Compound 6, 6β,17β-Dihydroxy-19-nor-4-androsten-3-one]	80.2 µM
C[C@]12CC[C@H]3[C@@H](CCC4=CC(=O)CC[C@@]43O)[C@@H]1CCC2=O [Compound 7, 10β-Hydroxy-19-nor-4-androsten-3,17-dione]	61.1 µM
C[C@]12CC[C@H]3[C@@H](CCC4=CC(=O)CC[C@@H]43)[C@@H]1C[C@H](O)[C@@H]2O [Compound 8, 16β,17β-Dihydroxy-19-nor-4-androsten-3-one]	29.6 µM

same assay, conditions: Leishmania major, 72 h, 72 h at 21-22° C., assays repeated thrice, read-out: Leishmanicidal Activity (IC50 in μM)

Structure (SMILES)	IC50
C[C@@H]1[C@H](O)[C@@H](C)/C=C/C=C/C=C/C=C/C=C/C=C/C=C/[C@H](O[C@@H]2O[C@H](C)[C@@H](O)[C@H](N)[C@@H]2O)C[C@@H]2O[C@](O)(C[C@@H](O)C[C@@H](O)[C@H](O)CC[C@@H](O)C[C@@H](O)CC(=O)O[C@H]1C)C[C@H](O)[C@H]2C(=O)O [Amphotericin B, reference compound]	0.29 ± 0.05 µM
C[C@]12CC[C@H]3[C@@H](CCC4=CC(=O)CC[C@@H]43)[C@@H]1CC[C@@H]2O [Compound 1, 17β-Hydroxy-19-nor-4-androsten-3-one, reference compound]	29.6 to 80.2 µM
N=C(N)c1ccc(OCCCCCOc2ccc(C(=N)N)cc2)cc1 [Pentamidine, reference compound]	5.09 ± 0.09 µM

same assay, conditions: Leishmania major, 72 h, 72 h at 21-22° C., read-out: IC50 against leishmaniasis (unit printed as M)

Structure (SMILES)	IC50
N=C(N)c1ccc(OCCCCCOc2ccc(C(=N)N)cc2)cc1 [Pentamidine, reference compound]	5.09 µM

same assay, conditions: read-out: Leishmanicidal Activity (IC50 in μM), 72 h at 21-22° C., assays repeated thrice, listed as Nandrolone (1)

Structure (SMILES)	IC50
C[C@]12CC[C@H]3[C@@H](CCC4=CC(=O)CC[C@@H]43)[C@@H]1CC[C@@H]2O [Compound 1, 17β-Hydroxy-19-nor-4-androsten-3-one, reference compound]	32 µM
